Assay results reported in ChEMBL document CHEMBL1201862, “PubChem BioAssay data set” (2004).
Values belong to the compound of their own block, whether it stands above or below them. The source made the active and inactive calls.

How the values were obtained:
[1] = molecular target: DNA damage-inducible transcript 3 protein (Mus musculus, UniProt P35639); assay type: functional, Cricetulus griseus
[2] = viability of HCT116 lacking mutant beta-catenin – cell-based, human colon tumor, dose response (AID 1045); assay type: functional;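 also: HCT116 colon tumor cells with beta catenin knocked out; cells exposed to compound for 60 hours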
[3] = molecular target: T1, SUMO-activating enzyme (Homo sapiens, UniProt Q9UBT2); assay: blockers of UBC9-mediated SUMO conjugation – biochemical, AlphaScreen, SUMOylation inhibitor project, confirmation (AID 2018); assay type: functional
[4] = viability of PTEN-deleted HCT116 cells – cell-based, HCT116 PTEN knockout, dose response (AID 1047); assay type: functional;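 also: HCT116 colon tumor cells with PTEN knocked out; cells exposed to compound for 60 hours before readout; potency for loss of cell viability measured by luminescence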
[5] = molecular target: Induced myeloid leukemia cell differentiation protein Mcl-1 (Homo sapiens, UniProt Q07820); assay type: functional
[6] = molecular target: T1, SUMO-activating enzyme; assay: blockers of SAE1/SAE2–UBC9 SUMO transfer – biochemical, HTRF, uHTS, primary screen (AID 2006); assay type: protein-complex assay
[7] = molecular target: Melanocortin receptor 4 (Homo sapiens, UniProt P32245); assay type: functional, cell-based;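 also: Cell-based assay with luminescence read-out, confirmatory dose-response testing for agonist activity of biased ligands at MC4R; human U2OS cells with tagged receptor and beta-arrestin; potency of agonists that increase receptor coupling to beta-arrestin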
[8] = system: INS1; assay: INS-1E survival protection against cytokine death – cell-based, luminescence, retest, dose response (AID 449756); assay type: functional; conditions: Rattus norvegicus;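 also: cell death triggered by IL-1 beta plus TNF-alpha plus IFN-gamma mixture; protective hits raise ATP signal compared with cytokine alone wells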
[9] = system: Streptococcus sp. 'group A'; assay: Streptococcus pyogenes SK(-)GAS viability under kanamycin – luminescence, BacTiterGlo, confirmation, counter-screen for streptokinase expression inhibitor project, dose response (AID 1900); assay type: functional, organism-based
[10] = system: HEK293; assay: EBV LMP1 TES2 canonical NF-kB signalling blockers – cell-based, HEK293, luciferase, cherry-pick, dose response (AID 588343); assay type: functional; conditions: Homo sapiens
[11] = NIH-3T3 fibroblast cytotoxicity, dose response, cytotoxicity control, cell-based, fluorescence, Alamar Blue, secondary assay (AID 2327); assay type: functional;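 also: NIH-3T3 mouse fibroblasts cultured with fluconazole at 8 µg/mL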
[12] = molecular target: ATP-dependent molecular chaperone HSP82 (Candida albicans (strain WO-1) (Yeast), UniProt C4YTQ8); assay: steroid-induced GRE reporter decrease in yeast – S. cerevisiae, luminescence, Hsp90 inhibitor project, dose response (AID 2400); assay type: functional, cell-based;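 also: beta-galactosidase luminescence from glucocorticoid response element reporter as proxy for Hsp90 function; inhibitor potency where signal loss means Hsp90 inhibition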
[13] = system: Streptococcus; assay: GAS UMAA2166 growth inhibition – luminescence, BacTiterGlo, counter-screen for streptokinase expression inhibitor project, dose response (AID 1915); assay type: functional, organism-based;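 also: potency for reduction of bacterial viability or growth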
[14] = mammalian cell viability loss – Alamar Blue, dry powder, cytotoxicity control for antifungal single agent project, dose response (AID 602188); assay type: functional, cell-based
[15] = Trypanosoma cruzi growth suppression in host cells – NIH3T3 host cells, beta-gal luminescence, confirmation (AID 2044); assay type: functional, cell-based;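 also: intracellular parasites grown in NIH/3T3 mouse fibroblasts as host cells; luminescent beta-galactosidase reporter signal from transgenic T. cruzi replicating inside host cells; inhibitors lower the luminescence signal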
[16] = fluconazole-exposed Candida albicans growth modulators – fluorescence, retest, confirmation (AID 2467); assay type: functional, cell-based
[17] = NIH3T3 cell viability loss – ATP luminescence, mouse fibroblasts, counter-screen, dose response (AID 2010); assay type: functional, cell-based;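 also: cells exposed to compound for about 90 hours before reading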
[18] = molecular target: T2, Serine/threonine-protein phosphatase (Candida dubliniensis (strain CD36 / CBS 7987 / NCPF 3949 / NRRLY-17841) (Yeast), UniProt B9W6M3); assay: blockers of CaCl2-induced CDRE-lacZ signaling – S. cerevisiae, luminescence, secondary, dose response (AID 2388); assay type: functional, cell-based;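 also: yeast reporter cells carrying a calcineurin-responsive lacZ construct stimulated with calcium chloride; luminescent beta-galactosidase reporter signal in whole cells rather than isolated phosphatase activity; potency for inhibition where a drop in reporter signal means calcineurin blockade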
T2 sequence (B9W6M3 whole entry): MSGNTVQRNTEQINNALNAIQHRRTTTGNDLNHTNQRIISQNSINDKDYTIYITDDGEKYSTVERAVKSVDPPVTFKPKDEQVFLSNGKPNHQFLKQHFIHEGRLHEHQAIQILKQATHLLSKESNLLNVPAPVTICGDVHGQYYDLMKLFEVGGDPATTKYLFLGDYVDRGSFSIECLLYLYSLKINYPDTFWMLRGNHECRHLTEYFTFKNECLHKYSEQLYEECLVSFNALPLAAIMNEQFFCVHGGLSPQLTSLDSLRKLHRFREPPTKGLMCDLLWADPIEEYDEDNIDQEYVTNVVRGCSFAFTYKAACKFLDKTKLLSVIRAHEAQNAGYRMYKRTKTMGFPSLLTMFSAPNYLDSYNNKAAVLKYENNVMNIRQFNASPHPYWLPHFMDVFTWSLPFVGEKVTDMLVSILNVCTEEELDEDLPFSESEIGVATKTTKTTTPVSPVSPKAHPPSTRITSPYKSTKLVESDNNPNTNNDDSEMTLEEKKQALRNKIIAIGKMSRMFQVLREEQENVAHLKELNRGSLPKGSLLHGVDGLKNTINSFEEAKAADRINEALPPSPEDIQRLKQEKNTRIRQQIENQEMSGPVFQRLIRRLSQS

[19] = molecular target: Tyrosine-protein phosphatase non-receptor type 11 (Homo sapiens, UniProt Q06124); assay: PTPN11 enzyme inhibitors – biochemical, selectivity assay for STEP inhibitor project, dose response (AID 602367); assay type: functional; conditions: read-out: IC50_Mean
[20] = molecular target: Dual specificity protein phosphatase 3 (Homo sapiens, UniProt P51452); assay: VHR phosphatase inhibition, dose response, selectivity assay for STEP inhibitor project, biochemical (AID 602374); assay type: functional; conditions: read-out: IC50_Mean
[21] = molecular target: Tyrosine-protein phosphatase non-receptor type 5 (Homo sapiens, UniProt P54829); assay: PTPN5 enzyme inhibition – biochemical, fluorescence intensity, uHTS hits, confirmation (AID 602372); assay type: functional; conditions: read-out: IC50_Mean
[22] = molecular target: T3, Carboxy-terminal domain RNA polymerase II polypeptide A small phosphatase 1 (Homo sapiens, UniProt Q9GZU7); assay: CTDSP1 inhibitors, concentration-response, biochemical, absorbance readout, ultra-high-throughput screen actives (AID 540297); assay type: functional
T3 sequence (Q9GZU7 whole entry): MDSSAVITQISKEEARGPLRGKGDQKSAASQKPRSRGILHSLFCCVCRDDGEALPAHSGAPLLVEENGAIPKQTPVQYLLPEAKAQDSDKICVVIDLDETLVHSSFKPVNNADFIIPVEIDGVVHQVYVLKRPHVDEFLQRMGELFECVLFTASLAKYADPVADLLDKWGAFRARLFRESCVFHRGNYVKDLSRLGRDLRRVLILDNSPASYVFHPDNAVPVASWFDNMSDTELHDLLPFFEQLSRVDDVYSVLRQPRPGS

[23] = bead-based luminescence quenchers, dual-tagged ARNT – biochemical, AlphaScreen, cherry-pick, artefact control for ARNT-TACC3 interaction inhibitor project, dose response (AID 651705); assay type: functional;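 also: AlphaScreen bead proximity signal that flags compounds interfering with the detection technology; potency reflects signal decrease which marks the compound as an assay artifact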
[24] = molecular target: T4, Apoptotic protease-activating factor 1 (Homo sapiens, UniProt O14727); assay: SAR analysis of small molecule Activators of Apaf-1 in a Fluorescent assay.; assay type: functional; conditions: read-out: EC50_Mean;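 also: caspase-3 cleavage of fluorogenic Rh110 DEVD substrate downstream of apoptosome activation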
T4 sequence (O14727 whole entry): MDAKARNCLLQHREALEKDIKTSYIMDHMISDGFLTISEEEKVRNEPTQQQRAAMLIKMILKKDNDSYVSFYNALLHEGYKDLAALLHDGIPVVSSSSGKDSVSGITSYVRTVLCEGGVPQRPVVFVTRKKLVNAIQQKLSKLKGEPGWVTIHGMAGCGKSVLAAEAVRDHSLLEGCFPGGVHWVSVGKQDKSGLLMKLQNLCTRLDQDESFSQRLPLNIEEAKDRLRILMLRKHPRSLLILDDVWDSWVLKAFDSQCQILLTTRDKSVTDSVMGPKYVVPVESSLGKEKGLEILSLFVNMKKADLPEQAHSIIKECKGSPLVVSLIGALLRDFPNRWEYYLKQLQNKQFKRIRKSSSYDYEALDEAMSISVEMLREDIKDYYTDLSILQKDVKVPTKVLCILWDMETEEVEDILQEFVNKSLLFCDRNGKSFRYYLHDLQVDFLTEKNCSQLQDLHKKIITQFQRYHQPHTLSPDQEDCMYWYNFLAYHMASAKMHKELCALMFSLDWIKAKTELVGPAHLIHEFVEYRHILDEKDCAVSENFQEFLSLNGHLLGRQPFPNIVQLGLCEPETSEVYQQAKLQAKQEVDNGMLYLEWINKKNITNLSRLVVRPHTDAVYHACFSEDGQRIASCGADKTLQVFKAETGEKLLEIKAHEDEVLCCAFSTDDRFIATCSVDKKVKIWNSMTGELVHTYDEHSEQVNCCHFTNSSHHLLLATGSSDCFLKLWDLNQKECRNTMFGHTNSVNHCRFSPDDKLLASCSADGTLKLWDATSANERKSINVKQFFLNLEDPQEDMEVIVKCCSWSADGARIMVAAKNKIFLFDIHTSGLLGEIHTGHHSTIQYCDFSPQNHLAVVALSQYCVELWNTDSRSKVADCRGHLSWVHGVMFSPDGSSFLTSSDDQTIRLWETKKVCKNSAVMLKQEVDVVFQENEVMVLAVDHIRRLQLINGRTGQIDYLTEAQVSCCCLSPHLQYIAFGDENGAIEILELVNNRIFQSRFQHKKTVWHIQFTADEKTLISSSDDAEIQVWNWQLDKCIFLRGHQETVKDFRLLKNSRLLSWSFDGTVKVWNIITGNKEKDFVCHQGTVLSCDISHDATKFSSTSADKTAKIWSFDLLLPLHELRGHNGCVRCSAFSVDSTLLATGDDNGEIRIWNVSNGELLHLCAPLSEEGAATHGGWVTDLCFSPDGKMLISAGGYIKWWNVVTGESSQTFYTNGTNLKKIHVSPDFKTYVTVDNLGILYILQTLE

[25] = molecular target: T5, Eukaryotic translation initiation factor 2-alpha kinase 3 (Homo sapiens, UniProt Q9NZJ5); assay: Dose response cell-based high-throughput screening assay to measure PERK inhibition. [Related pubchem assays: 1416 ]; assay type: functional
T5 sequence (Q9NZJ5 whole entry): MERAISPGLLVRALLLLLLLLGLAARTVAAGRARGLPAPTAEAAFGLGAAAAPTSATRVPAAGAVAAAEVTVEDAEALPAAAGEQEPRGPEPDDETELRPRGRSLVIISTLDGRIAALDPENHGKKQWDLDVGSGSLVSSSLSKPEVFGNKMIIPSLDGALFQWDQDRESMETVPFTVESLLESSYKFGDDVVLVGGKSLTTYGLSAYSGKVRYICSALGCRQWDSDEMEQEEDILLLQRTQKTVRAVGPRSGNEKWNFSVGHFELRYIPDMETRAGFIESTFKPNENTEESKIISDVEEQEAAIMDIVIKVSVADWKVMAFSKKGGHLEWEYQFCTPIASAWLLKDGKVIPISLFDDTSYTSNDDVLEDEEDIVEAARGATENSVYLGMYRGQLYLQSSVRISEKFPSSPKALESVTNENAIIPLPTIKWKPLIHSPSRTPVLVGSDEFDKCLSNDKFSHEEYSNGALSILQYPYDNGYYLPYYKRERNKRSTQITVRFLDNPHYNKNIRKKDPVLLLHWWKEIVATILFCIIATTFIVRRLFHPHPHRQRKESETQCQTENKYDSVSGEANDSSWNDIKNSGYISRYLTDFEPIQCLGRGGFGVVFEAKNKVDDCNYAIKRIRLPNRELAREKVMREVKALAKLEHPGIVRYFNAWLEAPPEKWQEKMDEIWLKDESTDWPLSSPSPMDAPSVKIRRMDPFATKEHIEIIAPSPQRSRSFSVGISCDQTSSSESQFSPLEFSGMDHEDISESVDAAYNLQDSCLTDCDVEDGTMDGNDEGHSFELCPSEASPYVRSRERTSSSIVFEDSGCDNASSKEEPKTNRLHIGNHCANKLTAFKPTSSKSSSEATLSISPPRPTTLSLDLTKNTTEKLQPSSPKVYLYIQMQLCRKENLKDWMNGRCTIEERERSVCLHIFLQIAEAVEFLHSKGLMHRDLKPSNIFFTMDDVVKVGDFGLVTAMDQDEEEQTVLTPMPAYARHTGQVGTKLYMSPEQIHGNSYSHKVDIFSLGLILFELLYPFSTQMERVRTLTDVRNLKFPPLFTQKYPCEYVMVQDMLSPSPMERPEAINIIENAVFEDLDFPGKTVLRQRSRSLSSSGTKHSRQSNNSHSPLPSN

[26] = molecular target: T5, Eukaryotic translation initiation factor 2-alpha kinase 3; assay: Counterscreen assay for PERK inhibitors: Dose response cell-based high throughput screening assay to measure inhibition of PERK at 6 hours. [Related pubchem assays: 1522, 1416 ]; assay type: functional
[27] = molecular target: Potassium voltage-gated channel subfamily KQT member 2 (Rattus norvegicus, UniProt O88943); assay: blockers of KCNQ2 channel current – cell-based, automated electrophysiology, set II, rat KCNQ2, dose response (AID 588637); assay type: functional
Potassium voltage-gated channel subfamily KQT member 2, sequence (O88943 whole entry): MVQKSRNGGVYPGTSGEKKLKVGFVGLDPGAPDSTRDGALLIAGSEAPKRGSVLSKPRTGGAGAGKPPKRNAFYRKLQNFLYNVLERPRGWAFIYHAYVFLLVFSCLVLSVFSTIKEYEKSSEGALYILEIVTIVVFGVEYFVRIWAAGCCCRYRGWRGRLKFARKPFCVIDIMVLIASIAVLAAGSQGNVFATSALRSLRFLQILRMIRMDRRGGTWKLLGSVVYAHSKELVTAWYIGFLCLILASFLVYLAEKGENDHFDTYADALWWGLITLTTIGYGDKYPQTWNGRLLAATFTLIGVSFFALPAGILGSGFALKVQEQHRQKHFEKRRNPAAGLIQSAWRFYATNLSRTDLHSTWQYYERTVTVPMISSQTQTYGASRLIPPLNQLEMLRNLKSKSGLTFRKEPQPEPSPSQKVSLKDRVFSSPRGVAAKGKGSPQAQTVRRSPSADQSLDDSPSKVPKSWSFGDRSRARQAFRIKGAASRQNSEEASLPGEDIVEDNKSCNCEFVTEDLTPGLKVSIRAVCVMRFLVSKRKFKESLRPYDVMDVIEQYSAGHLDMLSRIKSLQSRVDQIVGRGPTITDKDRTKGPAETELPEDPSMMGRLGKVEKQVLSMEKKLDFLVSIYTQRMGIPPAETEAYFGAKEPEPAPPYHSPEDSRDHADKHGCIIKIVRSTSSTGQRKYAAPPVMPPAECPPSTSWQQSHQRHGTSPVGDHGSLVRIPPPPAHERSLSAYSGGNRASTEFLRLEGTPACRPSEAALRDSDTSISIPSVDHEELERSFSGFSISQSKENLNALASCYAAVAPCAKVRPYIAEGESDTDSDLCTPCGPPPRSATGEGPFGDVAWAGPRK

T1 sequence (Q9UBE0 whole entry): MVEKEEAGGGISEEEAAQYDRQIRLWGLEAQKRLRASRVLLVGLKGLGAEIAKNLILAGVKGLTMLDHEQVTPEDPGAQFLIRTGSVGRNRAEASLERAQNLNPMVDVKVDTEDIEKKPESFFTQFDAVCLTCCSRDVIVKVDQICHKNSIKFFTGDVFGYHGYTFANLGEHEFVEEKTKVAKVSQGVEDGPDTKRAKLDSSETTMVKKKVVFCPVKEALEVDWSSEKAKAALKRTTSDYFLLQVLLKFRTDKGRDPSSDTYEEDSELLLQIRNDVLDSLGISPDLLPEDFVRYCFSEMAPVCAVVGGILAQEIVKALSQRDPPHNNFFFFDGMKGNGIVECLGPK
T1 sequence (Q9UBT2 whole entry): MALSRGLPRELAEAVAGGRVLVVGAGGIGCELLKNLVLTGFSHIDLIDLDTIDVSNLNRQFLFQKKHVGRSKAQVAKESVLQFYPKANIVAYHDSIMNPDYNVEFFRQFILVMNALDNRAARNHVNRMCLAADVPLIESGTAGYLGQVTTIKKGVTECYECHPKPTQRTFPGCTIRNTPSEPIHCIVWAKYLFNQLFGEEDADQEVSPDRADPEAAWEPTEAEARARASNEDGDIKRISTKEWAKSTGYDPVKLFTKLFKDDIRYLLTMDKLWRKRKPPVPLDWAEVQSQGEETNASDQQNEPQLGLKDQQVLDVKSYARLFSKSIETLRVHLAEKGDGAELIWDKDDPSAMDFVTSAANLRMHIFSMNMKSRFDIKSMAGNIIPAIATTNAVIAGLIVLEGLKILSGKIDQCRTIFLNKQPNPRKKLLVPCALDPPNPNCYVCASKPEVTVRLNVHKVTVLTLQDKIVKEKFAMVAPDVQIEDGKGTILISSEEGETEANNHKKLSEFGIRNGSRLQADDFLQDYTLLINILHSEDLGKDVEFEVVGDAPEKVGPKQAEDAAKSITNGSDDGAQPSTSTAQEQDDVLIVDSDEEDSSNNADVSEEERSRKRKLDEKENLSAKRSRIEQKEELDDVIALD
Dual specificity protein phosphatase 3, sequence (P51452 whole entry): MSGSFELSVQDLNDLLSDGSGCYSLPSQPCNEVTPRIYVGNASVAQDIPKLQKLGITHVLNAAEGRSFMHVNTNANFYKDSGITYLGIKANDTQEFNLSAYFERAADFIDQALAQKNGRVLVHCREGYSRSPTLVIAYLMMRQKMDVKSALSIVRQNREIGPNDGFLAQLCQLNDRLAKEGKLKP
Induced myeloid leukemia cell differentiation protein Mcl-1, sequence (Q07820 whole entry): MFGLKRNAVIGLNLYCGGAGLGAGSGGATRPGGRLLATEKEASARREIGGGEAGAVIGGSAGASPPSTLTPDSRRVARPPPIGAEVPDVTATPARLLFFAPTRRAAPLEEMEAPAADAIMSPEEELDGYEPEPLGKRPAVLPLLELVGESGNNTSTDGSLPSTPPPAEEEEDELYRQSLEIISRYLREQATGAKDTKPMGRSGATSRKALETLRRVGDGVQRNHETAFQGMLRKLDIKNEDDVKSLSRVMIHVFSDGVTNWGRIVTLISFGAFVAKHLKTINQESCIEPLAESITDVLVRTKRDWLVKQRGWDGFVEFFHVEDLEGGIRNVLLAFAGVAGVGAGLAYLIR
DNA damage-inducible transcript 3 protein, sequence (P35639 whole entry): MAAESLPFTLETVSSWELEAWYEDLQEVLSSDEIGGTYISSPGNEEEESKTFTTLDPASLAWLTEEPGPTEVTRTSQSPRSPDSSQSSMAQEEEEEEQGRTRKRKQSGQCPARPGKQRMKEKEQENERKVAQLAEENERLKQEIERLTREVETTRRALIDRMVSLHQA
Tyrosine-protein phosphatase non-receptor type 5, sequence (P54829 whole entry, the tested form may be a part): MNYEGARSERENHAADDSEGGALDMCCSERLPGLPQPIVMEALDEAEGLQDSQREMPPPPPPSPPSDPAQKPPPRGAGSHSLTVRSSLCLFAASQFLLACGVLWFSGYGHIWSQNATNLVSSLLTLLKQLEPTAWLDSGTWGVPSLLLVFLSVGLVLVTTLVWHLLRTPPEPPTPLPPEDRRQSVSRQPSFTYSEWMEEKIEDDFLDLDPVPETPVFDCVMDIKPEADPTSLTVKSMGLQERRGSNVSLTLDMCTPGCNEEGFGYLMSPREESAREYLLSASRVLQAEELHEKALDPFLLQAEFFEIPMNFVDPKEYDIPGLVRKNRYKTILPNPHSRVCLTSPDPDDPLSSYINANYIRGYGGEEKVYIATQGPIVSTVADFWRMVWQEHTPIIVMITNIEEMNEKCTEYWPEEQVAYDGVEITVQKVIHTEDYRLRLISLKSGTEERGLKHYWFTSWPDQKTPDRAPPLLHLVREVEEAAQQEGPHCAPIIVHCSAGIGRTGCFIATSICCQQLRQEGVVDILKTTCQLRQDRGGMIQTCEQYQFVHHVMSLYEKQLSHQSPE
ATP-dependent molecular chaperone HSP82, sequence (C4YTQ8 whole entry): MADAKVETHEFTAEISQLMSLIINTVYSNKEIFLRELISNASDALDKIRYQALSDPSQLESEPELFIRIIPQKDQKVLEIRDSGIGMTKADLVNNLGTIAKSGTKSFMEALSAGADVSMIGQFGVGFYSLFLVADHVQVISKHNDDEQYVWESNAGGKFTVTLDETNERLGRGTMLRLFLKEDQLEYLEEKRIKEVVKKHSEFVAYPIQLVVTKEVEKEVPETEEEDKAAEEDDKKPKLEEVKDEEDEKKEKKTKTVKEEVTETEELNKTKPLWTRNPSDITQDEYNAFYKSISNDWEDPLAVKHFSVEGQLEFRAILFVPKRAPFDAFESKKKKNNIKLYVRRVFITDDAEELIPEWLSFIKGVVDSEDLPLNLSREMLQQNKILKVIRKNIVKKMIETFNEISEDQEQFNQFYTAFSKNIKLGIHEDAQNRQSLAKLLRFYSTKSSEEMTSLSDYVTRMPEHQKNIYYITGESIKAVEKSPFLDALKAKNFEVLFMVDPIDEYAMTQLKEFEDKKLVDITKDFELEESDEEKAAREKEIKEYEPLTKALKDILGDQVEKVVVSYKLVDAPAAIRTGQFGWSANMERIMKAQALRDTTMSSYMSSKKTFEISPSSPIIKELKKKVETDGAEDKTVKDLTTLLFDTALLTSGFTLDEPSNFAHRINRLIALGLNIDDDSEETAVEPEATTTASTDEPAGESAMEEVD
Melanocortin receptor 4, sequence (P32245 whole entry): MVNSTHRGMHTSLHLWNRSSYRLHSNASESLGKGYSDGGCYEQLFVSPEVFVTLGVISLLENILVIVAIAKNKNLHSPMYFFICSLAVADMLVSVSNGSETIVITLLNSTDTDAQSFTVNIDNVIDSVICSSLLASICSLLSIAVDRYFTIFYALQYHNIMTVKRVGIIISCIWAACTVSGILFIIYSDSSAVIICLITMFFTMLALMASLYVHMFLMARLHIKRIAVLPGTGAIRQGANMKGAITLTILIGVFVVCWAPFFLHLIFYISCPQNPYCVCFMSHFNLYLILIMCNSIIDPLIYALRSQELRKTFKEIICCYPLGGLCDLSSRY

SMILES: O=C(N=Nc1c(O)n(Cc2ccccc2)c2ccccc12)c1cc2ccccc2cc1O
Absolute IC50 (CHOP) [1]: 10 µM
EC50 [2]: 5.03 µM (active)
IC50 [3]: 12.3 µM (active)
EC50 [4]: 4.96 µM (active)
IC50 [5]: 5.39 µM (active)
IC50 [6]: 13.8 µM (active)
EC50 [7]: > 89.2 µM (inactive)
AC50 [8]: 7.06 µM (active)

SMILES: COc1ccc(-c2nnc(NC(=O)c3ccc(S(=O)(=O)N4CCCc5ccccc54)cc3)o2)cc1
EC50 [9]: 0.186 µM (active)
AC50 [10]: 3.47 µM (active)
EC50 [11]: 32.9 µM (inconclusive)
EC50 [12]: > 150 µM (inactive)
EC50 [13]: 0.855 µM (active)
AC50 [14]: 2.71 µM (active)
EC50 [15]: 0.795 µM (active)
EC50 [16]: 0.326 µM (active)
EC50 [17]: 5.82 µM (active)
EC50 [18]: > 180 µM (inactive)

SMILES: O=C(O)c1ccccc1-c1ccccc1C(=O)Nc1ccc2c(c1)nc(O)c1ccccc12
AC50 [23]: 79.9 µM (active)

The next lines start with the values.

IC50 [19]: 1.13 µM (active)
IC50 [20]: 2.62 µM (active)
IC50 [21]: 30.9 µM (inactive)
IC50 [22]: 3.71 µM (active)
SMILES: CCN(c1ccccc1)S(=O)(=O)c1cc(C(=O)OCC(=O)c2c(N)n(C)c(=O)n(C)c2=O)ccc1C

EC50 [24]: > 100 µM (inactive)
EC50 [25]: > 55.7 µM (not active)
EC50 [26]: > 55.7 µM (not active)
SMILES: Cc1csc2c(=O)sc(NC(=O)c3ccc(F)cc3)nc12

IC50 [27]: 8.84 µM (active)
SMILES: Cc1ccccc1OCCn1cc(C(=O)C(=O)N2CCOCC2)c2ccccc21
